Measured values published in publication PMC8780741, “Integration of In Silico, In Vitro and In Situ Tools for the Preformulation and Characterization of a Novel Cardio-Neuroprotective Compound during the Early Stages of Drug Development” (Pharmaceutics, 2022).
Read-outs that look alike come from different tables or passages of the source.

Key:
[1] = Apparent permeability across MDCK monolayers; type: in vitro ADME, Canine; conditions: dog, 37 °C, stirring at 50 rpm
Method: MDCK (Madin–Darby Canine Kidney) cells, their transfected clone MDCK-MDR1, and Caco-2 cells were grown in the modified Dulbecco Eagle medium added with L-glutamine, fetal bovine serum and penicillin−streptomycin. The number of cells seeded in transwells with a surface area of 4.2 cm^2 depended on the cell line: 250,000 cells/cm^2 for MDCK and Caco-2 and 150,000 cells/cm^2 for MDCK-MDR1. Experiments were performed between 7 and 9 days for MDCK and MDCK-MDR1 and between 19 and 21 for Caco-2 cells after seeding. Prior to drug placement, cell monolayer integrity was assessed by measuring transepithelial electrical resistance (TEER). Transport studies were performed on an orbital shaker at 37 °C and 50 rpm. Four samples of 200 μL were taken from the receptor side at 0, 15, 30, 60 and 90 min, and two samples from the donor compartment at the beginning and end of the experiment. A standard experiment was performed with the same buffer for the apical and basolateral compartments in the apical to basolateral (A-B) and basolateral to apical (B-A) directions. The drug concentration was 100 μM in all experiments and samples were analyzed immediately by HPLC. The retention time was 2.3 min at maximum wavelengths (λmax = 260 nm). […] The lower limit of quantitation of JM-20 was adequate to interpolate the values obtained in the samples. […]

[2] = design: method as in product owner (technical report); conditions: ref product owner (technical report); cited from earlier work
[3] = Refinement of intrinsic and salt solubility with pDISOL-X
From the text: To develop a solution speciation model, the experimental data of log S—pH were used as input into the computer program pDISOL-X [30]. The computational algorithm considers the contributions of all species present in solution, including all buffer components. The program derives its own implicit solubility equations internally, given any practical number of equilibria and estimated constants. The equilibrium constants are subsequently refined by weighted nonlinear least-squares regression. The method can test for the presence of specific buffer drug species. The program assumes an initial condition of a suspension of the solid drug in a solution, ideally with the suspension saturated over a wide range of pH. The software calculates the species distribution as a consequence of a sequence of additions of standardized strong-acid titrant HCl to simulate the suspension pH-speciation down to pH ~ 0, the staging point for the subsequent operation. […] The ionic strength is rigorously calculated at each step, and pKa values (as well as the solubility products and the aggregation and complexation constants) are adjusted accordingly. At the end of the pH-speciation simulation, the calculated log S vs. pH curve is compared to log S vs. pH measured. A log S-weighted nonlinear least squares refinement begins to refine the proposed equilibrium model, using analytical expressions for the differential equations. The process is repeated until the differences between calculated and measured log S values reach a minimum.

[4] = Dissociation constant (pKa) by UV-spectrophotometric method; type: physicochemical; conditions: aqueous buffer solutions
Method: The pH measurements were performed using a sensiON™ (PH31) pH meter. Standard solutions of JM-20 ([…] were prepared adding 0.2 mL of the stock solution in 9.8 mL of each buffer. UV-VIS spectra were recorded on a UV-Vis Spectrophotometer (Thermo Fisher GENESYS™ 10S, Shanghai, China) between 200 and 400 nm (2 nm of resolution). All spectrophotometric data were processed in Microsoft Excel (2018).
The experimental pKa was determined using the spectrophotometric method proposed by Salgado et al.. The absorbance spectra of the JM-20 were acquired at different pH levels. The wavelengths of maximum absorbance were determined at each pH. Using a plot of observed absorbance versus pH at these analytical wavelengths (262, 316 and 355 nm), the pKa values were calculated. To determine these points, the linear equations of the two points closest to the crossing at each curve were solved. The whole procedure was carried out in triplicate and at room temperature (23 ± 2 °C).

[5] = design: method as in earlier work; conditions: potentiometric titration; cited from earlier work

Structure (SMILES): CCOC(=O)C1=C(C)NC2=C(C=Nc3ccccc3N2)C1c1ccccc1[N+](=O)[O-] (stereo not drawn) [JM-20, 3-ethoxycarbonyl-2-methyl-4-(2-nitrophenyl)-4,11-dihydro-1H-pyrido [2,3-b][1,5] benzodiazepine]
- Papp A→B at 90 min, 100 µM [1]: 24.6 ± 1.1 ×10⁻⁶ cm/s
- Papp B→A at 90 min, 100 µM [1]: 2.8 ± 7.1 ×10⁻⁶ cm/s
- Stability in DMSO and absolute ethanol [2]: stable
- solubility ([3]; 37 °C, read-out: So, intrinsic solubility calculated by pDISOL-X): 12 µg/mL
- solubility ([3]; aqueous buffer, pH 3.5, 37 °C, read-out: Solubility calculated by pDISOL-X): 14.3 µg/mL
- solubility ([3]; aqueous buffer, pH 4.0, 37 °C, read-out: Solubility calculated by pDISOL-X): 18.9 µg/mL
- solubility ([3]; aqueous buffer, pH 4.5, 37 °C, read-out: Solubility calculated by pDISOL-X): 74.9 µg/mL
- solubility ([3]; aqueous buffer, pH 6.8, 37 °C, read-out: Solubility calculated by pDISOL-X): 12.5 µg/mL
- solubility ([3]; aqueous buffer, pH 7.4, 37 °C, read-out: Solubility calculated by pDISOL-X): 11.9 µg/mL
- solubility ([3]; pH 1.2, 37 °C, read-out: Solubility calculated by pDISOL-X): 3.3 µg/mL
- pKa ([4]; pH 2 to 12, UV-spectrophotometric, 23 °C, ionic strength approximately 0.1 M, read-out: pKa1 (base)): 5.48 ± 0.19
- pKa ([4]; pH 2 to 12, UV-spectrophotometric, 23 °C, ionic strength approximately 0.1 M, read-out: pKa2 (acid)): 10.5 ± 0.17
- pKa ([4]; pH 2 to 12, measured pKa transformed to 37 °C (estimated), read-out: pKa1 at 37 °C): 5.54
- pKa ([4]; pH 2 to 12, measured pKa transformed to 37 °C (estimated), read-out: pKa2 at 37 °C): 10.3
- pKa [5]: 5.25
